Measurements published in PMC4850295, “Using a Genetically Encoded Sensor to Identify Inhibitors of Toxoplasma gondii Ca^2+ Signaling” (The Journal of Biological Chemistry, 2016).

tested on: T1, GCaMP5-expressing T. gondii; parameters: species or system GCaMP5-expressing Toxoplasma gondii, extracellular; GCaMP5 fluorescence (cytosolic Ca2+) after 100 uM zaprinast in compound-pretreated extracellular parasites, background-subtracted, relative to zaprinast alone; settings: 100 uM zaprinast stimulation; 10 min pretreatment; mean of two replicates; 0.23 h
T1 construct: whole extracellular parasites expressing GCaMP5 Ca2+ sensor
Method in brief: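 Extracellular GCaMP5-expressing parasites in Ringer's solution were pretreated with compounds (single 10 μM dose, two biological replicates) for 10 min, then stimulated with 100 μM zaprinast at 37 °C for 4 min. Fluorescence read at 485/525 nm, basal subtracted, expressed as fold change relative to zaprinast-only parasites.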

Structure (SMILES) | fold change in fluorescence relative to zaprinast alone
CC(C)c1nc(-c2cccc(NS(=O)(=O)c3c(F)cccc3F)c2)c(-c2ccnc(Nc3ccc(N4CCOCC4)nc3)n2)s1 [GSK1723980B] | 0.6316
CC(C)c1nc(-c2ccc(F)c(NS(=O)(=O)c3c(F)cccc3F)c2)c(-c2ccnc(Nc3ccc(N4CCOCC4)nc3)n2)s1 [GSK1804250A] | 1.361
COc1cc(N2CCN(C(C)C)CC2)ccc1Nc1nc(Nc2cccc(F)c2C(=O)O)c2cc[nH]c2n1 [GSK1819799A] | 1.115
Cc1ccc(NC(=O)c2cccc(N3CCCCC3)c2)cc1-c1ccc(C(=O)NCC2CC2)cc1 [GSK1917008A] | 1.193
CC(C)c1nc(-c2cccc(NS(=O)(=O)c3c(F)cccc3F)c2F)c(-c2ccnc(Nc3ccc(N4CCOCC4)nc3)n2)s1 [GSK2008607A] | 1.572
COc1cc2c(cc1Nc1nc(Nc3ccsc3C(N)=O)c3cc[nH]c3n1)N(C(=O)CN(C)C)CCC2 [GSK2110236A] | 1.302
N#Cc1ccc(CCNc2nccc(-c3cccc(CN4CCNCC4)c3)n2)cc1 [GSK2137462A] | 0.3754
COc1cc2c(cc1Nc1nc(Nc3ccsc3C(N)=O)c3cc[nH]c3n1)N(C(=O)CN(C)C)CCC2(C)C [GSK2163632A] | 1.131
O=c1[nH]ccc2nc(N[C@@H]3CCCNC3)nc(Nc3ccc(S(=O)(=O)N4CCOCC4)cc3)c12 [GSK2177277A] | 1.049
O=c1[nH]ccc2nc(N[C@@H]3CCNC3)nc(Nc3ccc4c(c3)S(=O)(=O)CC4)c12 [GSK2181306A] | 1.236
COc1cc2c(cc1Nc1nc(N3CCc4ccccc43)c3cc[nH]c3n1)N(C(=O)CN(C)C)CC2 [GSK2186269A] | 1.113
O=c1[nH]ccc2nc(N[C@@H]3CCNC3)nc(Nc3cc(Cl)cc(Cl)c3)c12 [GSK2188764A (Enh2)] | 2.366
Nc1n[nH]c2cc(-c3ccccn3)ccc12 [GSK2189892A] | 1.03
Nc1cccc(-c2ccc3c(N)n[nH]c3c2)n1 [GSK2192730A] | 1.059
Nc1cccc(-c2ccc3c(N)n[nH]c3c2)c1 [GSK2193613A] | 0.7898
Cc1cccc(Nc2nc(N[C@H]3CCNC3)ncc2C(N)=O)c1 [GSK2197149A] | 1.037
CNc1nccc(-c2ccc3c(N)n[nH]c3c2)n1 [GSK2206003A] | 1.243
COc1cc(C)c(NC(=O)CN(C)C)cc1Nc1nc(Nc2cccc(F)c2C(N)=O)c2cc[nH]c2n1 [GSK2213727A] | 1.59
CN(C)c1cc(-c2ccc3c(N)n[nH]c3c2)nc(N)n1 [GSK2219329A] | 0.9361
CNC(=O)c1ncccc1Nc1nc(Nc2cc3c(cc2OC)CCCN3C(=O)CN(C)C)nc2[nH]ccc12 [GSK2220400A] | 1.127
CC(C)Nc1cc(-c2ccc3c(N)n[nH]c3c2)nc(N)n1 [GSK2221681A] | 1.173
Nc1nc(Nc2ccccc2)cc(-c2ccc3c(N)n[nH]c3c2)n1 [GSK2225749A] | 1.117

Structure (SMILES) | fold change in fluorescence relative to zaprinast alone
Nc1nc(-c2ccc3c(N)n[nH]c3c2)cc(N2CCCC2)n1 [GSK2227430A] | 1.158
Nc1nc(-c2ccc3c(N)n[nH]c3c2)cc(N2CCCCC2)n1 [GSK2228768A] | 0.9677
O=c1[nH]cc(-c2ccc(N3CCOCC3)cc2)c2sc(-c3cn[nH]c3)cc12 [GSK2276055A] | 0.8496
C[C@@H]1CC[C@@H](C(=O)Nc2ccccc2)CN1c1cc(-c2ccc3c(N)n[nH]c3c2)nc(N)n1 [GSK2286062A] | 0.9223
Nc1nc(-c2ccc3c(N)n[nH]c3c2)cc(N2CCCC(NC(=O)c3ccccc3)C2)n1 (stereo not drawn) [GSK2286775B] | 1.202
C[C@@H]1CC[C@H](C(=O)NC2CCCCC2)CN1c1cc(-c2ccc3c(N)n[nH]c3c2)nc(N)n1 [GSK2291363A] | 1.384
O=c1cc(N2CCOCC2)nc2n(Cc3cccc(C(F)(F)F)c3)ccn12 [GSK2297543A] | 0.8956
O=c1cc(N2CCOCC2)nc2n(Cc3cccc(Cl)c3Cl)c3ccccc3n12 [GSK2299009A] | 1.093
Cc1c(Cn2c3ccccc3n3c(=O)cc(N4CCOCC4)nc23)cccc1C(F)(F)F [GSK2306394A] | 0.7248
Cc1nn2c(=O)cc(N3CCOC(C)C3)nc2n1Cc1cccc(Cl)c1Cl (stereo not drawn) [GSK2373693A] | 0.7316
CNc1nc(-c2ccc3c(N)n[nH]c3c2)cc(N2C[C@@H](C(=O)NC3CCCCC3)OC[C@H]2C)n1 [GSK2375584A] | 1.379
Nc1nccc2scc(-c3ccc4c(c3)CCN4C(=O)Cc3ccccc3)c12 [GSK2576924A] | 0.9278
Nc1nccc2scc(-c3ccc4c(c3)CCN4C(=O)Cc3cc(F)ccc3F)c12 [GSK2587663A] | 0.7245
Nc1ncc(-c2ccncc2)c2scc(-c3ccc4c(c3)CCN4C(=O)Cc3ccccc3)c12 [GSK2592465A] | 1.243
Nc1ncc(-c2cn[nH]c2)c2scc(-c3ccc4c(c3)CCN4C(=O)Cc3ccccc3)c12 [GSK2593067A] | 1.414
Cn1cc(-c2cnc(N)c3c(-c4ccc5c(c4)CCN5C(=O)Cc4ccccc4)csc23)cn1 [GSK2593074A] | 1.463
Cc1ccccc1CC(=O)N1CCc2cc(-c3cn(C)c4ncnc(N)c34)ccc21 [GSK2603346A] | 1.278
Cn1cc(-c2ccc3c(c2)CCN3C(=O)Cc2cccc(F)c2)c2c(N)ncnc21 [GSK2603358A] | 1.56
Cn1cc(-c2ccc3c(c2)CCN3C(=O)Cc2cccc(Cl)c2)c2c(N)ncnc21 [GSK2606590A] | 1.488
Cn1cc(-c2ccc3c(c2)CCN3C(=O)Cc2ccccc2Cl)c2c(N)ncnc21 [GSK2608885A] | 1.437
COc1cccc(CC(=O)N2CCc3cc(-c4cn(C)c5ncnc(N)c45)ccc32)c1 [GSK2608899A] | 0.9364
Cc1ccc(CC(=O)N2CCc3cc(-c4cn(C)c5ncnc(N)c45)ccc32)cc1 [GSK2634758A] | 1.068

Structure (SMILES) | fold change in fluorescence relative to zaprinast alone
Nc1ncnc2occ(-c3ccc4c(c3)CCN4C(=O)Cc3cc(F)ccc3F)c12 [GSK2645446A] | 0.8883
c1ccc(Cn2cnc3cc(Nc4ncnc5ccccc45)ccc32)cc1 [GW272142A] | 1.177
NS(=O)(=O)c1cccc(N/C=C2\C(=O)Nc3ccccc32)c1 [GW275616X] | 0.9797
Cc1ccc2c(c1)/C(=N/Nc1ccc(S(N)(=O)=O)cc1)C(=O)N2 [GW275944X] | 1.616
NS(=O)(=O)c1ccc(N/N=C2\C(=O)Nc3ccc(-c4cnco4)cc32)cc1 [GW276655X] | 1.083
CS(=O)(=O)Nc1ccc(N/C=C2\C(=O)Nc3ccccc32)cc1 [GW278681X] | 1.254
Cc1cc(Cl)cc2c1NC(=O)C2=NNc1ccc(S(N)(=O)=O)cc1 [GW279320X] | 1.035
NS(=O)(=O)c1ccc(N/N=C2\C(=O)Nc3ccc(Cl)cc32)cc1 [GW280670X] | 0.9881
Cn1cncc1-c1cc2c(Nc3ccc(OCc4ccccc4)cc3)ncnc2cn1 [GW281179X] | 1.036
COc1cc2ncnc(Nc3ccc4c(cnn4Cc4ccccc4)c3)c2cc1OC [GW282449A] | 1.119
COc1cc2ncnc(Nc3ccc4nc(-c5ccccc5)[nH]c4c3)c2cc1OC [GW282450A] | 0.9024
Cc1cccc2c1NC(=O)/C2=N\Nc1ccc(S(N)(=O)=O)cc1 [GW282536X] | 1.189
c1ccc(COc2ccc(Nc3ncnc4ccc(-c5ccco5)cc34)cc2)cc1 [GW284372X] | 0.7189
O=C1Nc2ccccc2/C1=C/Nc1ccc2[nH]c(=O)[nH]c2c1 [GW284408X] | 0.9722
NS(=O)(=O)c1ccc(N/N=C2\C(=O)Nc3ccc(C(=O)NCCCn4ccnc4)cc32)cc1 [GW290597X] | 1.214
COc1ccc2[nH]c3c4[nH]c5ccc(OC)cc5c4c4c(c3c2c1)C(=O)NC4=O [GW296115X] | 0.5167
NS(=O)(=O)c1ccc(N/C=C2\C(=O)Nc3ccc4ncsc4c32)cc1 [GW297361X] | 1.167
NS(=O)(=O)c1ccc(N/N=C2\C(=O)Nc3ccc(C(=O)NCCc4c[nH]cn4)cc32)cc1 [GW300660X] | 1.243
O=C1Nc2ccccc2/C1=C/Nc1ccc(-n2cncn2)cc1 [GW301789X] | 1.111
CN(C)c1cc2c(Nc3ccc4nc(Cc5ccccc5)[nH]c4c3)ncnc2cn1 [GW301888X] | 1.125
NS(=O)(=O)c1ccc(N/N=C2\C(=O)Nc3ccc4ncccc4c32)cc1 [GW305178X] | 0.9853
Cn1cncc1-c1ccc2ncnc(Nc3ccc(OCc4ccccc4)cc3)c2c1 [GW320571X] | 0.8423
